This note sets out measurements from patent US9974782B2, “Phosphodiesterase inhibitors and uses thereof” (THE TRUSTEES OF COLUMBIA UNIVERSITY IN THE CITY OF NEW YORK, priority 2008, dated 2018).

What is called pIC50 is −log10 of the IC50, conventionally taken in molar units.

pIC50: −log10 of the molar value. “And” between values parts separate entries of the source, which are not always exact repeats. Equal entries are not always repeated.

The test deals with PDE5A1 (Homo sapiens, UniProt O76074). Nature of the test: PDE assay for compound screening (IMAP TR-FRET kit, FAM-cGMP, fluorescence polarization). It is filed as biochemical. The settings on record: 100 nM cGMP substrate; read-out: IC50 for PDE5. The method, then:
Protocol of PDE Assay for Compound Screening
Materials: IMAPTM TR-FRET Screening Express with Progressive Binding Kit from Molecular Devices (R8160); FAM-Cyclic-3′,5′-GMP from Molecular Devices (R7507); PDE5 inhibitors.
Step 1: A dilution series of the inhibitors ranging from 300 pM to 10 μM in 1× PDE Assay Buffer are made. Subsequently, FAM-cGMP is diluted to 200 nM in 1×PDE Assay Buffer. PDE5A1 enzymes are then diluted to 0.125 ng/μl in 1×PDE Assay Buffer.
Step 2: The following components are added to a low binding black plate: a) […] of 200 nM FAM-cGMP (Final concentration will be 100 nM); b) 5 μl of the compounds (Final concentration=30 pM to 1 μM); c) 20 μl of PDE5A1 (0.125 ng/l) (Final amount=2.5 ng/reaction). The components are mixed and incubated at room temp. for 1 hour.
Step 3: A 1× reagent-binding buffer (75% 1× Binding Buffer A and 25% 1× Binding Buffer B) is then prepared followed by a Binding Solution that is prepared by diluting Binding Reagent with 1× reagent-binding Buffer (1:600). 120 μl of Binding Solution is then added to each well and the plate is incubated at room temperature for 1 hour.
Step 4: Fluorescence polarization is measured at excitation of 485 nm and emission of 520 nm in BioTek Synergy™ 2 microplate reader.
For orientation: In TR-FRET formats the signal depends on donor and acceptor labels being close together.

For the compound `COc1ccc(CNc2c(CO)cnc3c(C4CC4)cc(C#N)cc23)cc1Cl` [YF012403, 4-(3-chloro-4-methoxybenzylamino)-8-cyclopropyl-3-(hydroxymethyl)-quinoline-6-carbonitrile], the pIC50 is 8.92 and 9.57.
